Legend:
Type in all cases: in vitro ADME
[1] = target: T1, CYP2A6 (Homo sapiens, UniProt P11509); experiment: Incubation with human cDNA-expressed CYP2A6; conditions: CYP2A6, 30 min at 37 °C with NADPH; ETN101 10 μM or M1 1 μM
T1 construct: purchased Corning Life Sciences (Woburn, MA, USA)
T1 sequence (P11509 1-494): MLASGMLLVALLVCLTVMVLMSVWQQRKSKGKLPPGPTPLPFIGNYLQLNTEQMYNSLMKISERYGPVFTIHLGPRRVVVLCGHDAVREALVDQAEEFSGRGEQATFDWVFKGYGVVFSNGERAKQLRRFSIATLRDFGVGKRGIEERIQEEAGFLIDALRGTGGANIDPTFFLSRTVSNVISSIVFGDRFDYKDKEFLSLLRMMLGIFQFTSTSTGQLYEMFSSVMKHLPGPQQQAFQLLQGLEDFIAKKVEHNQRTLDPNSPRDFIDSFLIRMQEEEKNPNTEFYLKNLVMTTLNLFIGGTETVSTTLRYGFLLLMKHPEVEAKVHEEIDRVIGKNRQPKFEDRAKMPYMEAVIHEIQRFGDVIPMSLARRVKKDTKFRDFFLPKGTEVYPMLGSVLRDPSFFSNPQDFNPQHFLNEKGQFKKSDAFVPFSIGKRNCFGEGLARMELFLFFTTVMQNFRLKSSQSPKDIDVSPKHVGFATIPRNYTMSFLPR
Procedure: ETN101 or M1 was incubated with nine human cDNA-expressed CYP enzymes (1A2, 2A6, 2B6, 2C8, 2C9, 2C19, 2D6, 2E1, and 3A4) to identify the CYPs involved in the metabolism of ETN101. Based on the preliminary study, the incubation conditions were determined as follows: Briefly, reaction mixtures of 50 μL containing ETN101 (final concentration: 10 μM) or M1 (final concentration: 1 μM), and CYPs (final amount: 5 pmol for CYP1A2, 2A6, 2C8, 2C9, 2C19, 2D6, and 3A4; 10 pmol for CYP2B6 and 2E1) were prepared in 0.1 M potassium phosphate buffer. The reaction was initiated by adding 50 μL of NADPH- regenerating system; the mixtures were incubated for 0 min or 30 min at 37 °C in triplicate. Reactions were terminated by the addition of 100 μL of ice-cold acetonitrile containing the IS (camptothecin, 200 ng/mL). Samples were centrifuged at 13,000 rpm for 5 min at 4 °C. An aliquot of 2 μL supernatant was injected in LC–MS/MS system.
For enzyme characterization, an Agilent 6460 triple quadrupole mass spectrometer coupled with a 1260 HPLC system (Agilent Technologies, Santa Clara, CA, USA) and a Kinetex Halo® C18 column (2.7 μm, 2.1 × 50 mm, Advanced Material Technology, Wilmington, DE, USA) were used for chromatographic separation. […] ETN101, M1, and M2 were detected via MRM using ESI in the positive mode. […]

[2] = tested on: human hepatocytes; experiment: Metabolite characterization in human hepatocytes; conditions: human hepatocyte 1 h incubates of ETN101; ND:<1.2E+05 peak area
Procedure: (§1) We mixed 60 μL aliquots of 40 μM ETN101 in incubation medium and an equal volume of human, mouse, rat, dog, or monkey hepatocyte suspension in 96-well plates and incubated for 0 or 1 h in a CO2 incubator at 37 °C. The reactions were quenched by adding 120 µL of ice-cold acetonitrile to each well, and the cell suspension was sonicated for 5 min at 4 °C. Subsequently, centrifugation was carried out at 15,000× g for 10 min at 4 °C. Next, the supernatants were evaporated to dryness using a vacuum concentrator, and residues were re-dissolved in 70 μL of 30% acetonitrile. Each sample (5 μL aliquots) was analyzed using LC–HRMS system.
(§2) For metabolite characterization, a Vanquish HPLC system (Thermo Fisher Scientific, San José, CA, USA) coupled with a Q-Exactive Orbitrap mass spectrometer (Thermo Fisher Scientific Inc., Waltham, MA, USA) was used at Core Research Support Center for Natural Products and Medical Materials at Yeungnam University. […] The eluent from the column was directly injected into the mass spectrometer using a heated electrospray ionization (HESI) source in positive ionization mode. […] The spray voltage was 3.0 kV and the capillary temperature was 320 °C. Full scan MS^1 with a data-dependent MS^2 acquisition mode was applied to obtain MS^1 scan data ranging from m/z 80 to 900, at a resolution of 70,000, whereas data-dependent MS^2 spectra were acquired for the five most abundant peaks per cycle at a resolution of 35,000. The parallel reaction monitoring (PRM) mode was used to obtain the MS^2 spectra of putative metabolites detected at low peak intensities in the data-dependent MS^2 acquisition mode. Data were collected and interpreted using Thermo Scientific Xcalibur™ Software (Thermo Fisher Scientific).

[3] = tested on: dog hepatocytes; experiment: Metabolite characterization in dog hepatocytes; conditions: dog hepatocyte 1 h incubates of ETN101; ND:<1.2E+05 peak area
Procedure: as §1, §2

SMILES	Percentage remaining [1]	Relative peak area (%) [2]	Relative peak area (%) [3]
NCC(N)C(=O)Nc1ccc(-c2nc3ccccc3s2)cc1 (stereo not drawn) [ETN101, 2,3-diamino-N-(4-(benzo[d]thiazol-2-yl)phenyl)propanamide]	115.6%	76.4%	39.5%
Nc1ccc(-c2nc3ccccc3s2)cc1 [M1, 2-(4-aminophenyl)benzothiazole]	105.9%	21.0%	55.9%
